Measured values as given in US20030224978A1, “Compounds and methods for modulating apoptosis” (McGill University, priority 1996, published 2003).
Entries after “also recorded” stand apart in the source; their conditions may differ.

Columns and labels:
N-CAM = target: T1, N-CAM (Homo sapiens, UniProt P13591); test: Neurite outgrowth of mouse cerebellar neurons on 3T3 cells expressing N-CAM (Example 2); type: cell-based; conditions: 500 μg/mL
T1 construct: expressed in transfected cells; host or cells: 3T3 cells

control 3T3 cells = test: Neurite outgrowth of rat cerebellar neurons on control 3T3 cells (Example 14); type: cell-based; conditions: increasing concentrations
Procedure: Cell culture and neurite outgrowth assays. Co-cultures of cerebellar neurons on monolayers of control 3T3 cells and monolayers of transfected 3T3 cells that express physiological levels of chick N-cadherin or human L1 were established as previously described (Williams et al., Neuron 13:583-594, 1994). In brief, 80,000 3T3 cells (control and transfected) were plated into individual chambers of an eight-chamber tissue culture slide coated with polylysine and fibronectin and cultured in DMEM/10% FCS. After 24 hours, when confluent monolayers had formed, the medium was removed and 3000 cerebellar neurons isolated from post-natal day 2-3 rats were plated into each well in SATO media (Doherty et al., Nature 343:464-466, 1990) supplemented with 2% FCS. All of the test peptides were added immediately before the neurons as a 2×stock prepared in SATO/2% FCS. […] The mean length of the longest neurite per cell was measured for 150-200 neurons sampled in replicate cultures as previously described (Williams et al., Neuron 13:583-594, 1994). […] Dose-response curves were evaluated and the EC50 values determined.
Effects of cyclic HAV peptides on N-cadherin function. […] The cells were then fixed and the length of the longest neurite on 150-200 neurons was determined by standard assay, as described above. […]

human skin = test: Human skin permeability, penetration of fluorescent markers, Franz Cell apparatus; conditions: compared to N-Ac-CHGVC-NH2
Procedure: A third cell adhesion assay involves evaluating the effect of a cyclic peptide on permeability of adherent epithelial and/or endothelial cell layers. For example, the effect of permeability on human skin may be evaluated. Such skin may be derived from a natural source or may be synthetic. Human abdominal skin for use in such assays may generally be obtained from humans at autopsy within 24 hours of death. Briefly, a cyclic peptide and a test marker (e.g., the fluorescent markers Oregon Green™ and Rhodamine Green™ Dextran) may be dissolved in a sterile buffer, and the ability of the marker to penetrate through the skin and into a receptor fluid may be measured using a Franz Cell apparatus (Franz, Curr. Prob. Dermatol. 7:58-68, 1978; Franz, J. Invest. Dermatol. 64:190-195, 1975). In general, a modulating agent that enhances the permeability of human skin results in a statistically significant increase in the amount of marker in the receptor compartment after 6-48 hours in the presence of 500 μg/mL modulating agent. This assay evaluates the effect of a modulating agent on E-cadherin mediated cell adhesion.
Abdominal skin from humans at autopsy within 24 hours of death was used in these assays. The effect of N-Ac-CHAVC-NH2 (SEQ ID NO:10) and N-Ac-CHGVC-NH2 (SEQ ID NO:20), used at a concentration of 500 μg/ml or 2.5 mg/ml, on the penetration of two fluorescent markers, Oregon Green 488 (charge −1, MW 386 daltons) and Rhodamine Green 3000 Dextran (no charge, MW 3000 daltons) through human skin was then evaluated utilizing a Franz Cell apparatus (Franz, Curr. Prob. Dermatol. 7:58-68, 1978; Franz, J. Invest. Dermatol. 64:190-195, 1975). The peptides and markers were dissolved in sterile phosphate buffer, pH 7.2, and phosphate buffer was used as the receptor fluid. 150 μl of solution containing 0.2 mg Oregon Green and 1.0 mg Rhodamine Green was used to evaluate 500 μg/ml peptide; 200 μl of solution containing 0.05 mg Oregon Green and 1.250 mg Rhodamine Green was used to evaluate 2.5 mg/ml peptide. The solution was placed on top of the epidermal side of the skin, and the penetration of the markers through the skin was assessed using a fluorescent spectrophotometric method (in a Perkin Elmer 650-105 Fluorescence Spectrophotometer, and comparing the reading to a standard curve) at 6, 12, 24, 36, and 48 hours after the start of the experiment. The fluorescent units were converted to a concentration unit of microgram/5 ml (volume of the receiver compartment) using a standard curve and regression analysis equations. The curve was linear for the concentrations tested for both markers (r^2=1 for OrG and 0.997 for RhG). For each peptide and marker combination, the experiment was performed in triplicate.

[1] = tested on: SKOV3 human ovarian cancer cells; test: Induction of apoptosis / cell death in SKOV3 cells, in situ cell death detection kit; type: cell-based; conditions: 0.5 or 0.25 mg/mL, 48 hours
Procedure: Direct assays of induction of apoptosis may be performed using any standard technique. For example, cadherin-expressing cells (e.g., SKOV3 human ovarian cancer cells) may be plated onto poly-L-lysine coated glass slides and cultured with 500 μg/mL of modulating agent for 24-48 hours. Cells may then be fixed and assayed for cell death using any of a variety of well known methods. For example, an in situ cell death detection kit may be purchased from Boehringer Mannheim (Laval, Quebec) and used according to the manufacturer's instructions.
SKOV3 human ovarian cancer cells cultured in the presence of either N-Ac-CHAVC-NH2 (SEQ ID NO:10) or a control peptide (N-Ac-CHGVC-NH2; SEQ ID NO:20) in MEM with 10% FBS were plated onto poly-L-lysine coated glass slides. The cells were cultured for 24 or 48 hours and fixed with 4% paraformaldehyde for 30 minutes at room temperature. The slides were then washed three times with PBS and assessed for cell death. Cells were treated with 0.5 or 0.25 mg/mL of N-Ac-CHAVC-NH2 (SEQ ID NO:10) or the control N-Ac-CHGVC-NH2 (SEQ ID NO:20), as indicated. Cell death was measured as described by Gavrieli et al, J. Cell. Biol. 119:493-501, 1992 and using the In situ cell death detection kit (Boehringer Mannheim; Laval, Quebec).

T1 sequence (P13591 20-858, species assumed): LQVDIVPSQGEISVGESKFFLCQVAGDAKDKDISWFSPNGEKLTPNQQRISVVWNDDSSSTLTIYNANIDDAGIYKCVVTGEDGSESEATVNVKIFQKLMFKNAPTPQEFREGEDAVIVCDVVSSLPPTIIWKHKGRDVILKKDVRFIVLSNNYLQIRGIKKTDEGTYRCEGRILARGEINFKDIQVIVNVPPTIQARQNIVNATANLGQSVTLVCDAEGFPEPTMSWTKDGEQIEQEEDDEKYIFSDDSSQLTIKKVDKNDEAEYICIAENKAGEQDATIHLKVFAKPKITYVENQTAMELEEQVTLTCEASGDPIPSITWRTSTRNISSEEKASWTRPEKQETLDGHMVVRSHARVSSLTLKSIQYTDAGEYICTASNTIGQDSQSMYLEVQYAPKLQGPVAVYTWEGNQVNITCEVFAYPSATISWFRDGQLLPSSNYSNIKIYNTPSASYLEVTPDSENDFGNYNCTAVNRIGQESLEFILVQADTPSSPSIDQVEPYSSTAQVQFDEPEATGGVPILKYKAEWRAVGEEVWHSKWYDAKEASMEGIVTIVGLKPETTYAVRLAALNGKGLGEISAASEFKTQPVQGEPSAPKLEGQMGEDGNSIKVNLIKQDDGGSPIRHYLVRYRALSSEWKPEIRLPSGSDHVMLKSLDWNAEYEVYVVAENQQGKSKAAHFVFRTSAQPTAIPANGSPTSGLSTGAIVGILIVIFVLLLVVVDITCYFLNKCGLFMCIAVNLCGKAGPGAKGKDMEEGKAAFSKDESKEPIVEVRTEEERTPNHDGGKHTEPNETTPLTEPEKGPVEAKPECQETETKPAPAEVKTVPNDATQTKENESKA

CC(=O)N[C@H]1CSSC[C@@H](C(N)=O)NC(=O)[C@H](C(C)C)NC(=O)[C@H](C)NC(=O)[C@H](Cc2c[nH]cn2)NC1=O [N-Ac-CHAVC-NH2, N-Ac-Cys-His-Ala-Val-Cys-NH2]
effect on neurite outgrowth on 3T3 cells expressing N-CAM (N-CAM): did not inhibit neurite outgrowth
effect on neurite extension over control 3T3 cells (control 3T3 cells): no significant effect on neurite extension over control 3T3 cells; also recorded: had no effect on the basal growth over 3T3 cells
effect on penetration of Oregon Green through the skin, in words (human skin; 500 μg/ml): slightly increased the penetration of Oregon Green
effect on penetration of Rhodamine Green through the skin, in words (human skin; 500 μg/ml): significantly increased
effect on penetration of Oregon Green through the skin, in words (human skin; 2.5 mg/ml): increased the penetration of Oregon Green
effect on penetration of Rhodamine Green through the skin, in words (human skin; 2.5 mg/ml): significantly increased
cell death of SKOV3 cells [1]: the cells are dead; also recorded: cell death
